From patent US20180244895A1, “ANTIMICROBIAL AND ANTIVIRAL COMPOSITE POLYMER SURFACES” (YEDITEPE UNIVERSITESI, priority 2015, published 2018)
Read-outs that look alike come from different tables or passages of the source.

Legend:
Aspergillus spp. = assay: Modified disc diffusion method, boron compounds; assay type: cell-based; design: key: + sign indicates that the boron compounds had antimicrobial activity.; − sign indicates that there is no antimicrobial activity; settings: disc immersed in pulverized compound; 25±1° C., 72 hours
Staphylococcus aureus = assay: Modified disc diffusion method, boron compounds; assay type: cell-based; design: key: + sign indicates that the boron compounds had antimicrobial activity.; − sign indicates that there is no antimicrobial activity; settings: disc immersed in pulverized compound; 36±1° C., 24 hours
[1] = test system: Methicillin-resistant Staphylococcus aureus (MRSA); assay: Modified disc diffusion method, boron compounds; assay type: cell-based; design: key: + sign indicates that the boron compounds had antimicrobial activity.; − sign indicates that there is no antimicrobial activity; settings: disc immersed in pulverized compound; 36±1° C., 24 hours
Candida albicans = assay: Modified disc diffusion method, boron compounds; assay type: cell-based; design: key: + sign indicates that the boron compounds had antimicrobial activity.; − sign indicates that there is no antimicrobial activity; settings: disc immersed in pulverized compound; 36±1° C., 48 hours
[2] = test system: Vancomycin-resistant Enterococcus (VRE); assay: Modified disc diffusion method, boron compounds; assay type: cell-based; design: key: + sign indicates that the boron compounds had antimicrobial activity.; − sign indicates that there is no antimicrobial activity; settings: disc immersed in pulverized compound; 36±1° C., 24 hours
Penicillium spp. = assay: Modified disc diffusion method, boron compounds; assay type: cell-based; design: key: + sign indicates that the boron compounds had antimicrobial activity.; − sign indicates that there is no antimicrobial activity; settings: disc immersed in pulverized compound; 25±1° C., 72 hours
Fusarium oxysporum = assay: Modified disc diffusion method, boron compounds; assay type: cell-based; design: key: + sign indicates that the boron compounds had antimicrobial activity.; − sign indicates that there is no antimicrobial activity; settings: disc immersed in pulverized compound; 25±1° C., 72 hours
Botrytis cinerea = assay: Modified disc diffusion method, boron compounds; assay type: cell-based; design: key: + sign indicates that the boron compounds had antimicrobial activity.; − sign indicates that there is no antimicrobial activity; settings: disc immersed in pulverized compound; 25±1° C., 72 hours
Candida glabrata = assay: Modified disc diffusion method, boron compounds; assay type: cell-based; design: key: + sign indicates that the boron compounds had antimicrobial activity.; − sign indicates that there is no antimicrobial activity; settings: disc immersed in pulverized compound; 36±1° C., 48 hours
Pseudomonas aeruginosa = assay: Modified disc diffusion method, boron compounds; assay type: cell-based; design: key: + sign indicates that the boron compounds had antimicrobial activity.; − sign indicates that there is no antimicrobial activity; settings: disc immersed in pulverized compound; 36±1° C., 24 hours
Escherichia coli = assay: Modified disc diffusion method, boron compounds; assay type: cell-based; design: key: + sign indicates that the boron compounds had antimicrobial activity.; − sign indicates that there is no antimicrobial activity; settings: disc immersed in pulverized compound; 36±1° C., 24 hours
[3] = test system: poliovirus type 1 Chat strain; assay type: cell-based
[4] = test system: Human adenovirus type 5 Adenoid 75 strain; assay type: cell-based
poliovirus = settings: 0.02% chlorhexidine gluconate, 90-minute exposure at room temperature; cited from earlier work
Herpesvirus hominis = settings: 0.02% chlorhexidine gluconate, 90-minute exposure at room temperature; cited from earlier work
adenovirus = settings: 0.02% chlorhexidine gluconate, 90-minute exposure at room temperature; cited from earlier work
[5] = ingestion of 30 mg twice daily for three weeks; cited from earlier work
enteric bacteria = settings: cited from earlier work
[6] = test system: various bacterial strains; settings: 0.02% chlorhexidine solution, 10-minute exposure; cited from earlier work
[7] = test system: humanrhinovirus, coxsackievirus and mengovirus; settings: binds with ions of metals such as zinc; cited from earlier work
Pityrosporum ovale = settings: cited from earlier work
[8] = test system: P. aeruginosa NCIMB 10548; settings: cited from earlier work
[9] = test system: Saccharomyces cerevisiae yeast; settings: cited from earlier work
E. coli NCIMB 10000 = settings: cited from earlier work
[10] = 60 minutes, clean medium, 20° C.

Compound | Antimicrobial activity (inhibition zone) (Aspergillus spp.) | Antimicrobial activity (inhibition zone) (Staphylococcus aureus) | Antimicrobial activity (inhibition zone) [1] | Antimicrobial activity (inhibition zone) (Candida albicans) | Antimicrobial activity (inhibition zone) [2] | Antimicrobial activity (inhibition zone) (Penicillium spp.) | Antimicrobial activity (inhibition zone) (Fusarium oxysporum) | Antimicrobial activity (inhibition zone) (Botrytis cinerea) | Antimicrobial activity (inhibition zone) (Candida glabrata) | Antimicrobial activity (inhibition zone) (Pseudomonas aeruginosa) | Antimicrobial activity (inhibition zone) (Escherichia coli) | also measured
O.O.O.O.O.[Na+].[Na+].[O-]B1OB2OB([O-])OB(O1)O2 [BP, Borax pentahydrate] | + | + | + | + | + | + | + | + | + | + | + | –
N=C(NCCCCCCNC(=N)NC(=N)Nc1ccc(Cl)cc1)NC(=N)Nc1ccc(Cl)cc1.O=C(O)[C@H](O)[C@@H](O)[C@H](O)[C@H](O)CO.O=C(O)[C@H](O)[C@@H](O)[C@H](O)[C@H](O)CO [Chlorhexidine Gluconate, Chlorhexidine gluconate] | – | – | – | – | – | – | – | – | – | – | – | Virus titer with disinfectant [3]: 2.0 Logarithmic TCID50; reduction in virus titer [3]: at least 4 log; Reduction ratio in virus titer [4]: 4.0 Logarithmic TCID50 ratio; Virus titer with disinfectant [4]: 1.5 Logarithmic TCID50; reduction in virus titer [4]: at least 4 log; Reduction ratio in virus titer ([4]; 1 minute, clean medium, 20° C.): 4.0 Logarithmic TCID50 ratio; Virus titer with disinfectant ([4]; 1 minute, clean medium, 20° C.): 1.5 Logarithmic TCID50; Reduction ratio in virus titer [4, 10]: 4.0 Logarithmic TCID50 ratio; Virus titer with disinfectant [4, 10]: 1.5 Logarithmic TCID50; active against virus ([4]; used directly without being diluted, 20° C., 1 and 60 minute application periods): 99.9%; activity against virus (poliovirus): ineffective; reduction of virus titration (Herpesvirus hominis): more than 99%; activity against virus (adenovirus): ineffective
O.O.O.O.O=BOB1OB(OB=O)OB2OB([O-])OB([O-])OB(O1)O2.[Na+].[Na+] [DOT, Disodium octaborate tetrahydrate] | + | + | + | + | + | + | + | + | + | + | + | –
O.O.O.O.O.O.O.O.O.O.[Na+].[Na+].[O-]B1OB2OB([O-])OB(O1)O2 [SB, Sodium Borate] | + | + | + | + | + | + | + | + | + | + | + | –
O.O.O.O.[Na+].[O-]B1OO1 [SPT, Sodium perborate tetrahydrate] | + | + | + | + | + | + | + | + | + | + | + | –
O=BOB(O)OB(O)OB=O [borax, borax (Na2B4O7 10 H2O)] | – | – | – | – | – | – | – | – | – | – | – | effect on rheumatism [5]: substantially alleviated rheumatism
OB(O)O [boric acid] | – | – | – | – | – | – | – | – | – | – | – | antibacterial activity (enteric bacteria): has antibacterial activity
[H]/N=C(\N/C(=N/[H])NCCCCCCNC(=N)NC(=N)Nc1ccc(Cl)cc1)Nc1ccc(Cl)cc1 [chlorhexidine] | – | – | – | – | – | – | – | – | – | – | – | inhibition of microorganisms [6]: 4 log
CC(C)c1cccc(=O)c(O)c1 [hinokitiol] | – | – | – | – | – | – | – | – | – | – | – | inhibition of virus proliferation [7]: inhibited proliferation
Zinc borate [ZB] | + | + | + | + | + | + | + | + | + | + | + | –
Zinc pyrithione | – | – | – | – | – | – | – | – | – | – | – | Reduction ratio in virus titer [3]: 4.5 Logarithmic TCID50 ratio; Virus titer with disinfectant [3]: 1.5 Logarithmic TCID50; reduction in virus titer [3]: at least 4 log; Reduction ratio in virus titer [4]: 4.0 Logarithmic TCID50 ratio; Virus titer with disinfectant [4]: 1.0 Logarithmic TCID50; active against virus [4]: 99.9%; reduction in virus titer [4]: at least 4 log; antifungal activity (Pityrosporum ovale): has antifungal activity; MIC value [8]: 13 µg/mL; antiyeast activity [9]: has antiyeast activity; MIC value (E. coli NCIMB 10000): 4.5 µg/mL
